# Measurements published in patent publication US7297704B2, “Cycloalkyfused indole, benzothiophene, benzofuran and idene derivatives” (Wyeth, priority 2005, dated 2007).
# Counter-ions that a name gives are not always drawn.
# Experiments:
# h-5-HT-T = h-5-HT-T (Homo sapiens, UniProt P31645); test: h-5-HT-T IC50 (Table 1, no method described)
# serotonin transporter = target: T1, serotonin transporter (Rattus norvegicus, UniProt P31652); test: 3H-paroxetine binding to the serotonin transporter, rat frontal cortical membranes; conditions: 3H-paroxetine 0.1 nM; for IC50: values printed in parentheses, read-out: rb-5-HH-T, (IC50)
# T1 construct: frontal cortical membranes prepared from male S.D. rats; from tissue; host or cells: rat frontal cortex membranes (male Sprague-Dawley)
# Experimental: A protocol similar to that used by Cheetham et al. (Neuropharmacol. 32:737, 1993) was used to determine the affinity of compounds for the serotonin transporter. Briefly, frontal cortical membranes prepared from male S.D. rats were incubated with ^3H-paroxetine (0.1 nM) for 60 min at 25° C. All tubes also contained either vehicle, test compound (one to eight concentrations), or a saturating concentration of fluoxetine (10 μM) to define […]. All reactions are terminated by the addition of ice cold Tris buffer followed by rapid filtration using a Tom Tech filtration device to separate bound from free ^3H-paroxetine. Bound radioactivity was quantitated using a Wallac 1205 Beta Plate® counter. Nonlinear regression analysis was used to determine IC50 values which were converted to Ki values using the method of Cheng and Prusoff (Biochem. Pharmacol. 22: 3099, 1973); […].
# Human 5-HT1A Receptor [1] = target: T2, Human 5-HT1A Receptor (Homo sapiens, UniProt P08908); test: cAMP RIA in human 5-HT1A receptor cell line; format: cell-based; conditions: CHO cells; for IC50: superscript b, reversal of agonist activity, read-out: c-AMP, (IC50)^b
# T2 construct: expressed in transfected cells; host or cells: CHO cells
# T2 sequence (P08908 1-422): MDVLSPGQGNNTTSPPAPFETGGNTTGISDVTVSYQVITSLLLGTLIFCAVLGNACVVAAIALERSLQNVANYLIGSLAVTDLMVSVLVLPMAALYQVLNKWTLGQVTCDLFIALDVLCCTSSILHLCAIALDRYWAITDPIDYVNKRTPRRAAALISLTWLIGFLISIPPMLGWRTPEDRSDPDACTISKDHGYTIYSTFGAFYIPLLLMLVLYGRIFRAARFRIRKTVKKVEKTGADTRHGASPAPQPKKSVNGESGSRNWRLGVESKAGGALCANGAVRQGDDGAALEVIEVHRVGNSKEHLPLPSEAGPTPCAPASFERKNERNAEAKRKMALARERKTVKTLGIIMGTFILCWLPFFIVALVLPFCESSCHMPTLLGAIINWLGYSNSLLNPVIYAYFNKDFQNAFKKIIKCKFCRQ
# Experimental: Stably transfected CHO cells were grown in DMEM containing 10% heat inactivated FBS and non-essential amino acids. The cells were plated at a density of 10^6 cells per well in a 96 well plate and incubated for 2 days in a CO2 incubator. On the second day, the media was replaced with 0.1 ml Krebs and incubated 15 minutes at 37° C. The media was then replaced with Krebs buffer containing 500 uM IBMX and incubated 5 minutes at 37° C. Wells were treated with forskolin (1 uM final conc) followed immediately by test compound (0.1 and 1 uM for initial screen) and incubated for an additional 10 min at 37° C. Reaction was terminated by removal of the media and addition of 0.5 ml ice cold assay buffer (supplied in RIA kit). Plates are stored at −20° C. prior to assessment of cAMP formation by RIA. Compounds shown to have no agonist activities were further analyzed for ability to reverse agonist activity. In separate experiments, 6 concentrations of antagonist were preincubated for 20 min prior to the addition of agonist and forskolin. Cells were harvested as described. The cAMP kit is supplied by Amersham and the RIA is performed as per kit instructions. In the initial screen, percent inhibition of forskolin stimulated cAMP was measured. In the secondary screen, IC50 of reversal of agonist activity was measured. Calculations of IC50 were performed by GraphPad Prism. Serotonin, BMY 7378, Buspirone, and 8-OH-DPAT were used as reference compounds.
# Human 5-HT1A Receptor [2] = target: T2, Human 5-HT1A Receptor; test: 8-OH-DPAT binding, human 5-HT1A receptor cell line; conditions: stably transfected CHO cells, 8-OH-DPAT ligand 1.5 nM; read-out: h5-HT1A Affinity, Ki
# Experimental: Stably transfected CHO cells were grown in DMEM containing 10% heat inactivated FBS and non-essential amino acids. Cells were scraped off the plate, transferred to centrifuge tubes, and washed twice by centrifugation (2000 rpm for 10 min., 4° C.) in buffer (50 mM Tris, pH 7.5). The resulting pellets were aliquoted and placed at −80° C. On day of assay, the cells were thawed on ice, and resuspended in buffer. The binding assay was performed in a 96 well microtiter plate in a total volume of […]. Non-specific binding was determined in the presence of […] 5HT; final ligand concentration was 1.5 nM. Following a 30 min. incubation at room temperature, the reaction was terminated by the addition of ice cold buffer and rapid filtration through a GF/B filter presoaked for 30 min. in 0.5% PEI. Compounds were initially tested in a single point assay to determine percent inhibition at […]. Subsequently, Ki values were determined for compounds defined to be active. Percent inhibition Ki was determined by RFComp (Lundon Software), with Serotonin 8-OH-DPAT as the reference compounds.
# T1 sequence (P31652 whole entry): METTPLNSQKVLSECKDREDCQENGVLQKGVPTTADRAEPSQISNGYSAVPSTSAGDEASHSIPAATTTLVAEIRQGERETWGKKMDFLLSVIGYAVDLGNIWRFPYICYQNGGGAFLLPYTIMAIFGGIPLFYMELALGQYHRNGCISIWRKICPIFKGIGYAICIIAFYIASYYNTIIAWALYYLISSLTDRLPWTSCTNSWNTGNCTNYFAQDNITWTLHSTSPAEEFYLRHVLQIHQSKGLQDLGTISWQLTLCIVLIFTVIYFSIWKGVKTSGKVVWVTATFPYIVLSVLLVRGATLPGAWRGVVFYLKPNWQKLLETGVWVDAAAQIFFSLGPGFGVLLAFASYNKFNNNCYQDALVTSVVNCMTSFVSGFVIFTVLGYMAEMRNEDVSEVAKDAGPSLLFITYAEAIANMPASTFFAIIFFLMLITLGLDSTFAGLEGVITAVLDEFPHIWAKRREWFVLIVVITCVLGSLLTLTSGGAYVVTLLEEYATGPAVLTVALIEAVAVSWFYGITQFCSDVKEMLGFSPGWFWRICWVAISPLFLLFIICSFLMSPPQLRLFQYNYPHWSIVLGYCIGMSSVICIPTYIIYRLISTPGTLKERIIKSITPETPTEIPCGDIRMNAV
# Chain of h-5-HT-T (P31645 whole entry): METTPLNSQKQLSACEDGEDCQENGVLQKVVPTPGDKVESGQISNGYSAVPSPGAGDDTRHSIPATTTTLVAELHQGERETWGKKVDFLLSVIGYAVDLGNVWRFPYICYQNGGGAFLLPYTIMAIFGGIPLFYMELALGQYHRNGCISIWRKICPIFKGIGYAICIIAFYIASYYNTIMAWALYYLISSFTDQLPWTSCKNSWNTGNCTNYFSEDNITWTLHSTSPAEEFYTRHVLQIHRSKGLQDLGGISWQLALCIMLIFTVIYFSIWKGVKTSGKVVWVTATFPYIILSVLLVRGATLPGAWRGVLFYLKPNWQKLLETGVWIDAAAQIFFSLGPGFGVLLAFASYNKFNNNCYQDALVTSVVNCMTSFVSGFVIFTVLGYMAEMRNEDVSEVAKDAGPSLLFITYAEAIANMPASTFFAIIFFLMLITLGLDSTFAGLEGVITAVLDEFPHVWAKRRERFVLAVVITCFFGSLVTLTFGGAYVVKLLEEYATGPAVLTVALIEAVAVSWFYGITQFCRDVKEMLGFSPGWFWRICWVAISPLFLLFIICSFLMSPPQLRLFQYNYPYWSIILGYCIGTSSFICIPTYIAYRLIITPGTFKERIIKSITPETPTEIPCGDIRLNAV
IC50 (h-5-HT-T) [nM],melting point [°C],IC50 (Human 5-HT1A Receptor [1]) [nM],Ki (Human 5-HT1A Receptor [2]) [nM],IC50 (serotonin transporter) [nM],SMILES,"Ki (serotonin transporter; values printed without parentheses, read-out: rb-5-HH-T, Ki) [nM]","EC50 (Human 5-HT1A Receptor [1]; superscript a, forskolin stimulated cAMP, read-out: c-AMP, (EC50)^a) [nM]","Emax (Human 5-HT1A Receptor [1]; superscript c, forskolin stimulated cAMP, read-out: c-AMP, (Emax)^c) [%]"
505 ± 9.55,–,–,–,–,"Cc1ccc2c3c(ccc2n1)OC[C@H](CN(CC1CCc2c(c4cc(F)ccc4n2C)C1)C1CCCCC1)O3 (stereo partly drawn) [Example 67, N-[(6-Fluoro-9-methyl-2,3,4,9-tetrahydro-1H-carbazol-3-yl)methyl]-N-{[(2S)-8-methyl-2,3-dihydro[1,4]dioxino[2,3-f]quinolin-2-yl]methyl}cyclohexanamine monohydrochloride monohydrate]",–,–,–
–,220 to 230,49.2,16.7,124,"Cc1ccc2c3c(ccc2n1)OC[C@H](CNCC1CCc2[nH]c4cccc(F)c4c2C1)O3.Cl.Cl (stereo partly drawn) [Example 11, [(5-fluoro-2,3,4,9-tetrahydro-1H-carbazol-3-yl)methyl]{[(2S)-8-methyl-2,3-dihydro[1,4]dioxino[2,3-f]quinolin-2-yl]methyl}amine dihydrochloride]",–,–,–
–,267 to 275,249,4.95,11.3,"Cc1ccc2c3c(ccc2n1)OC[C@H](CNC[C@H]1CCc2[nH]c4c(F)cc(F)cc4c2C1)O3.Cl.Cl [Example 10, N-{[(3S)-6,8-difluoro-2,3,4,9-tetrahydro-1H-carbazol-3-yl]methyl}-N-{[(2S)-8-methyl-2,3-dihydro[1,4]dioxino[2,3-f]quinolin-2-yl]methyl}amine dihydrochloride]",–,–,–
–,260 to 272,105,3.7,57.6,"Cc1ccc2c3c(ccc2n1)OC[C@H](CNC[C@@H]1CCc2[nH]c4c(F)cc(F)cc4c2C1)O3.Cl.Cl [Example 9, N-{[(3R)-6,8-difluoro-2,3,4,9-tetrahydro-1H-carbazol-3-yl]methyl}-N-{[(2S)-8-methyl-2,3-dihydro[1,4]dioxino[2,3-f]quinolin-2-yl]methyl}amine dihydrochloride]",–,–,–
–,57 to 62,532,3.65,9.01,"Cc1ccc2c3c(ccc2n1)OC[C@H](CNCC1CCc2c(c4cc(F)ccc4n2C)C1)O3 (mixture of isomers) [Example 6, N-[(6-fluoro-9-methyl-2,3,4,9-tetrahydro-1H-carbazol-3-yl)methyl]-N-{[(2S)-8-methyl-2,3-dihydro[1,4]dioxino[2,3-f]quinolin-2-yl]methyl}amine]",–,–,–
–,89 to 97,7.2,1.36,5.26,"Cc1ccc2c3c(ccc2n1)OC[C@H](CNCC1CCc2[nH]c4ccc(F)cc4c2C1)O3 (mixture of isomers) [Example 2, N-[(6-fluoro-2,3,4,9-tetrahydro-1H-carbazol-3-yl)methyl]-N-{[(2S)-8-methyl-2,3-dihydro[1,4]dioxino[2,3-f]quinolin-2-yl]methyl}amine]",–,–,–
–,84 to 90,26.7,0.54,180,"Cc1ccc2c3c(ccc2n1)OC[C@H](CNCC1CCc2c(c4c(F)cccc4n2C)C1)O3 (stereo partly drawn) [Example 12, N-[(5-fluoro-9-methyl-2,3,4,9-tetrahydro-1H-carbazol-3-yl)methyl]-N-{[(2S)-8-methyl-2,3-dihydro[1,4]dioxino[2,3-f]quinolin-2-yl]methyl}amine]",–,–,–
–,236 to 241,79.5,13.6,3.61,"Cc1ccc2c3c(ccc2n1)OC[C@H](CNC[C@H]1CCc2[nH]c4ccc(C#N)cc4c2C1)O3.Cl.Cl [Example 14, (3S)-3-[({[(2S)-8-methyl-2,3-dihydro[1,4]dioxino[2,3-f]quinolin-2-yl]methyl}amino)methyl]-2,3,4,9-tetrahydro-1H-carbazole-6-carbonitrile dihydrochloride]",–,–,–
403 ± 29,–,–,–,–,"Cc1ccc2c3c(ccc2n1)OCC(CN(CC1CCc2c(c4cc(F)ccc4n2C)C1)C(C)C)O3 [Example 65, N-[(6-Fluoro-9-methyl-2,3,4,9-tetrahydro-1H-carbazol-3-yl)methyl]-N-([(2S)-8-methyl-2,3-dihydro[1,4]dioxino[2,3-f]quinolin-2-yl]methylpropan-2-aminemonohydrochloride monohydrate]",–,–,–
1700 ± 46,–,–,–,–,"Cc1ccc2c3c(ccc2n1)OC[C@H](CN(C[C@H]1CCc2[nH]c4ccc(F)cc4c2C1)C(C)C)O3 [Example 61, N-{[(3S)-6-Fluoro-2,3,4,9-tetrahydro-1H-carbazol-3-yl]methyl}-N-{[(2S)-8-methyl-2,3-dihydro[1,4]dioxino[2,3-f]quinolin-2-yl]methyl}propan-2-amine monohydrochloride monohydrate]",–,–,–
–,89 to 97,22.1,1.8,120,"Cc1ccc2c3c(ccc2n1)OC[C@H](CNCC1CCc2[nH]c4cc(F)ccc4c2C1)O3 (stereo partly drawn) [Example 13, N-[(7-fluoro-2,3,4,9-tetrahydro-1H-carbazol-3-yl)methyl]-N-{[(2S)-8-methyl-2,3-dihydro[1,4]dioxino[2,3-f]quinolin-2-yl]methyl}amine]",–,–,–
–,92 to 96,15.2,2.23,49.4,"Cc1ccc2c3c(ccc2n1)OC[C@H](CNCC1CCc2c([nH]c4ccc(F)cc24)C1)O3 (stereo partly drawn) [Example 1, N-[(6-fluoro-2,3,4,9-tetrahydro-1H-carbazol-2-yl)methyl]-N-{[(2S)-8-methyl-2,3-dihydro[1,4]dioxino[2,3-f]quinolin-2-yl]methyl}amine]",–,–,–

SMILES,IC50 (h-5-HT-T) [nM],melting point [°C],IC50 (Human 5-HT1A Receptor [1]) [nM],Ki (Human 5-HT1A Receptor [2]) [nM],IC50 (serotonin transporter) [nM],"Ki (serotonin transporter; values printed without parentheses, read-out: rb-5-HH-T, Ki) [nM]","EC50 (Human 5-HT1A Receptor [1]; superscript a, forskolin stimulated cAMP, read-out: c-AMP, (EC50)^a) [nM]","Emax (Human 5-HT1A Receptor [1]; superscript c, forskolin stimulated cAMP, read-out: c-AMP, (Emax)^c) [%]"
"Cc1ccc2c3c(ccc2n1)OC[C@H](CN(C[C@H]1CCc2[nH]c4ccc(F)cc4c2C1)C1CCCCC1)O3 [Example 64, N-{[(3S)-6-Fluoro-2,3,4,9-tetrahydro-1H-carbazol-3-yl]methyl}-N-{[(2S)-8-methyl-2,3-dihydro[1,4]dioxino[2,3-f]quinolin-2-yl]methyl}cyclohexanamine monohydrochloride monohydrate]",2490 ± 269,–,–,–,–,455,–,–
"Cc1ccc2c3c(ccc2n1)OC[C@H](CN(CC1CCc2c(c4cc(F)ccc4n2C)C1)C1CCCC1)O3 (stereo partly drawn) [Example 66, N-[(6-Fluoro-9-methyl-2,3,4,9-tetrahydro-1H-carbazol-3-yl)methyl]-N-{[(2S)-8-methyl-2,3-dihydro[1,4]dioxino[2,3-f]quinolin-2-yl]methyl}cyclopentanamine monohydrochloride monohydrate]",62.3 ± 9.19,–,–,–,–,–,163,67.5
